Source: patent US20060229433A1, “Modified antiviral peptides with increased activity and cell membrane affinity” (priority 2003, published 2006)
“And” between values parts separate entries of the source, which are not always exact repeats. Equal values may be shown once. Square brackets hold non-standard residues; d marks the D form. Peptide text beside a SMILES is read from it. Ava = NCCCCC(=O)O

Tests used:
Format in all cases: cell-based
HIV-1 NL 4-3 [1] = test: HIV-1 infection of C8166 cells (syncytia formation, p24 ELISA) with HIV-1 NL 4-3; design: key: ++, +, (+), (+)− and − represent decreasing numbers of syncitia formed; ++, +, (+), (+)− and − represent decreasing numbers of syncitia formed; ++, +, (+), (+)− and − represent decreasing numbers of syncitia formed; ++, +, (+), (+)− and − represent decreasing numbers of syncitia formed; ++, +, (+), (+)− and − represent decreasing numbers of syncitia formed; conditions: Table 6
Method in brief: (§1)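 C8166 T-cells were preincubated with peptide for 1 h at 37 °C, then exposed for 1 h to HIV-1 at 1000 TCID50/ml, washed, and cultured with peptide kept present throughout, with medium replaced at day 4. Infection was scored by syncytia formation and by supernatant p24 ELISA, with at least two runs in duplicate.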

HIV-1 NL 4-3 [2] = test: as above; design: key to syncitia formed, Day 4 / syncitia formed, Day 5 / syncitia formed, Day 6 / syncitia formed, Day 7: ++, +, (+), (+)− and − represent decreasing numbers of syncitia formed; ++, +, (+), (+)− and − represent decreasing numbers of syncitia formed; ++, +, (+), (+)− and − represent decreasing numbers of syncitia formed; ++, +, (+), (+)− and − represent decreasing numbers of syncitia formed; ++, +, (+), (+)− and − represent decreasing numbers of syncitia formed
Method in brief: as §1

HIV-1 NDK = test: HIV-1 infection of C8166 cells (syncytia formation, p24 ELISA) with HIV-1 NDK; design: key to syncitia formed, Day 4 / syncitia formed, Day 5 / syncitia formed, Day 6 / syncitia formed, Day 7: ++, +, (+), (+)− and − represent decreasing numbers of syncitia formed; ++, +, (+), (+)− and − represent decreasing numbers of syncitia formed; ++, +, (+), (+)− and − represent decreasing numbers of syncitia formed; ++, +, (+), (+)− and − represent decreasing numbers of syncitia formed; ++, +, (+), (+)− and − represent decreasing numbers of syncitia formed; conditions: for P 24: P 24 after Day 7
Method in brief: as §1

Compound: C[C@H](NC(=O)[C@H](CCCNC(=N)N)NC(=O)CNC(=O)[C@@H]1CCCN1C(=O)CN)C(=O)NCCCCC(=O)O [GPGRA valeric acid, GPGRA-NHCH2CH2CH2CH2COOH] (H-GPGRA[Ava]-OH; N-terminus assumed)
- Day 4 syncitia formed (HIV-1 NL 4-3 [1]; 0.005 μM): −
- Day 5 syncitia formed (HIV-1 NL 4-3 [1]; 0.005 μM): +
- Day 6 syncitia formed (HIV-1 NL 4-3 [1]; 0.005 μM): ++
- Day 4 syncitia formed (HIV-1 NL 4-3 [1]; 0.01 μM): −
- Day 5 syncitia formed (HIV-1 NL 4-3 [1]; 0.01 μM): +
- Day 6 syncitia formed (HIV-1 NL 4-3 [1]; 0.01 μM): ++
- Day 7 syncitia formed (HIV-1 NL 4-3 [1]; 0.01 μM): ++
- Day 4 syncitia formed (HIV-1 NL 4-3 [1]; 0.05 μM): −
- Day 5 syncitia formed (HIV-1 NL 4-3 [1]; 0.05 μM): (+)
- Day 6 syncitia formed (HIV-1 NL 4-3 [1]; 0.05 μM): +
- Day 7 syncitia formed (HIV-1 NL 4-3 [1]; 0.05 μM): +
- Day 4 syncitia formed (HIV-1 NL 4-3 [1]; 0.1 μM): −
- Day 5 syncitia formed (HIV-1 NL 4-3 [1]; 0.1 μM): (+)
- Day 6 syncitia formed (HIV-1 NL 4-3 [1]; 0.1 μM): +
- Day 7 syncitia formed (HIV-1 NL 4-3 [1]; 0.1 μM): +
- Day 4 syncitia formed (HIV-1 NL 4-3 [1]; 0.5 μM): −
- Day 5 syncitia formed (HIV-1 NL 4-3 [1]; 0.5 μM): −
- Day 6 syncitia formed (HIV-1 NL 4-3 [1]; 0.5 μM): −
- Day 7 syncitia formed (HIV-1 NL 4-3 [1]; 0.5 μM): −
- Day 4 syncitia formed (HIV-1 NL 4-3 [1]; 1 μM): −
- Day 5 syncitia formed (HIV-1 NL 4-3 [1]; 1 μM): −
- Day 6 syncitia formed (HIV-1 NL 4-3 [1]; 1 μM): −
- Day 7 syncitia formed (HIV-1 NL 4-3 [1]; 1 μM): −
- Day 4 syncitia formed (HIV-1 NL 4-3 [1]; 5 μM): −
- Day 5 syncitia formed (HIV-1 NL 4-3 [1]; 5 μM): −
- Day 6 syncitia formed (HIV-1 NL 4-3 [1]; 5 μM): −
- Day 7 syncitia formed (HIV-1 NL 4-3 [1]; 5 μM): −
- Day 7 syncitia formed (HIV-1 NL 4-3 [2]; 0.005 μM, Table 6): ++/T
- syncitia formed, Day 4 (HIV-1 NL 4-3 [2]; 0.01 μM, C8166 cells): −
- syncitia formed, Day 5 (HIV-1 NL 4-3 [2]; 0.01 μM, C8166 cells): +
- syncitia formed, Day 6 (HIV-1 NL 4-3 [2]; 0.01 μM, C8166 cells): ++
- syncitia formed, Day 7 (HIV-1 NL 4-3 [2]; 0.01 μM, Day 7, C8166 cells): ++
- P 24 (HIV-1 NL 4-3 [2]; 0.01 μM, P 24 after Day 7, C8166 cells): 13870 pg/mL and 11810 pg/mL
- syncitia formed, Day 4 (HIV-1 NL 4-3 [2]; 0.05 μM, C8166 cells): −
- syncitia formed, Day 5 (HIV-1 NL 4-3 [2]; 0.05 μM, C8166 cells): (+)
- syncitia formed, Day 6 (HIV-1 NL 4-3 [2]; 0.05 μM, C8166 cells): +
- syncitia formed, Day 7 (HIV-1 NL 4-3 [2]; 0.05 μM, Day 7, C8166 cells): +
- syncitia formed, Day 4 (HIV-1 NL 4-3 [2]; 0.1 μM, C8166 cells): −
- syncitia formed, Day 5 (HIV-1 NL 4-3 [2]; 0.1 μM, C8166 cells): −
- syncitia formed, Day 6 (HIV-1 NL 4-3 [2]; 0.1 μM, C8166 cells): (+)
- syncitia formed, Day 7 (HIV-1 NL 4-3 [2]; 0.1 μM, Day 7, C8166 cells): +
- P 24 (HIV-1 NL 4-3 [2]; 0.1 μM, P 24 after Day 7, C8166 cells): 2356 pg/mL and 2416 pg/mL
- syncitia formed, Day 4 (HIV-1 NL 4-3 [2]; 0.5 μM, C8166 cells): −
- syncitia formed, Day 5 (HIV-1 NL 4-3 [2]; 0.5 μM, C8166 cells): −
- syncitia formed, Day 6 (HIV-1 NL 4-3 [2]; 0.5 μM, C8166 cells): −
- syncitia formed, Day 7 (HIV-1 NL 4-3 [2]; 0.5 μM, Day 7, C8166 cells): (+)
- syncitia formed, Day 4 (HIV-1 NL 4-3 [2]; 1 μM, C8166 cells): −
- syncitia formed, Day 5 (HIV-1 NL 4-3 [2]; 1 μM, C8166 cells): −
- syncitia formed, Day 6 (HIV-1 NL 4-3 [2]; 1 μM, C8166 cells): −
- syncitia formed, Day 7 (HIV-1 NL 4-3 [2]; 1 μM, Day 7, C8166 cells): −
- P 24 (HIV-1 NL 4-3 [2]; 1 μM, P 24 after Day 7, C8166 cells): 13 pg/mL and 10 pg/mL
- syncitia formed, Day 4 (HIV-1 NL 4-3 [2]; 5 μM, C8166 cells): −
- syncitia formed, Day 5 (HIV-1 NL 4-3 [2]; 5 μM, C8166 cells): −
- syncitia formed, Day 6 (HIV-1 NL 4-3 [2]; 5 μM, C8166 cells): −
- syncitia formed, Day 7 (HIV-1 NL 4-3 [2]; 5 μM, Day 7, C8166 cells): −
- P 24 (HIV-1 NL 4-3 [2]; 5 μM, P 24 after Day 7, C8166 cells): 2.7 pg/mL and 3 pg/mL
- IC50 (HIV-1 NL 4-3 [2]; C8166 cells, HIV-1 subtype B NL 4-3, Table 9, two lines = tested twice, 8 days apart): 10 nM
- P 24 (HIV-1 NL 4-3 [2]; Day 7, 0.005 μM, Table 6): 23810 pg/mL
- P 24 (HIV-1 NL 4-3 [2]; Day 7, 0.01 μM, Table 6): 13030 pg/mL and 13810 pg/mL
- P 24 (HIV-1 NL 4-3 [2]; Day 7, 0.05 μM, Table 6): 6830 pg/mL and 3820 pg/mL
- P 24 (HIV-1 NL 4-3 [2]; Day 7, 0.5 μM, Table 6): 2 pg/mL and 2.2 pg/mL
- P 24 (HIV-1 NL 4-3 [2]; Day 7, 1 μM, Table 6): 2.3 pg/mL and 1.9 pg/mL
- P 24 (HIV-1 NL 4-3 [2]; Day 7, 5 μM, Table 6): 2.7 pg/mL and 1.8 pg/mL
- syncitia formed, Day 4 (HIV-1 NDK; 0.005 μM): (+)
- syncitia formed, Day 5 (HIV-1 NDK; 0.005 μM): +
- syncitia formed, Day 6 (HIV-1 NDK; 0.005 μM): ++
- syncitia formed, Day 7 (HIV-1 NDK; 0.005 μM): ++
- P 24 (HIV-1 NDK; 0.005 μM): 23810 pg/mL
- syncitia formed, Day 4 (HIV-1 NDK; 0.01 μM): −
- syncitia formed, Day 5 (HIV-1 NDK; 0.01 μM): +
- syncitia formed, Day 6 (HIV-1 NDK; 0.01 μM): ++
- syncitia formed, Day 7 (HIV-1 NDK; 0.01 μM): ++
- P 24 (HIV-1 NDK; 0.01 μM): 13810 pg/mL and 18710 pg/mL
- syncitia formed, Day 4 (HIV-1 NDK; 0.05 μM): −
- syncitia formed, Day 5 (HIV-1 NDK; 0.05 μM): (+)
- syncitia formed, Day 6 (HIV-1 NDK; 0.05 μM): ++
- syncitia formed, Day 7 (HIV-1 NDK; 0.05 μM): ++
- syncitia formed, Day 4 (HIV-1 NDK; 0.1 μM): −
- syncitia formed, Day 5 (HIV-1 NDK; 0.1 μM): (+)
- syncitia formed, Day 6 (HIV-1 NDK; 0.1 μM): ++
- syncitia formed, Day 7 (HIV-1 NDK; 0.1 μM): ++
- P 24 (HIV-1 NDK; 0.1 μM): 5600 pg/mL and 6400 pg/mL
- syncitia formed, Day 4 (HIV-1 NDK; 0.5 μM): −
- syncitia formed, Day 5 (HIV-1 NDK; 0.5 μM): −
- syncitia formed, Day 6 (HIV-1 NDK; 0.5 μM): +
- syncitia formed, Day 7 (HIV-1 NDK; 0.5 μM): ++
- syncitia formed, Day 4 (HIV-1 NDK; 1 μM): −
- syncitia formed, Day 5 (HIV-1 NDK; 1 μM): −
- syncitia formed, Day 6 (HIV-1 NDK; 1 μM): −
- syncitia formed, Day 7 (HIV-1 NDK; 1 μM): +
- P 24 (HIV-1 NDK; 1 μM): 2000 pg/mL and 2403 pg/mL
- syncitia formed, Day 4 (HIV-1 NDK; 5 μM): −
- syncitia formed, Day 5 (HIV-1 NDK; 5 μM): −
- syncitia formed, Day 6 (HIV-1 NDK; 5 μM): −
- syncitia formed, Day 7 (HIV-1 NDK; 5 μM): − and (+)
- IC50 (HIV-1 NDK; HIV 1 NDK, Table 10): > 5000 nM
- IC100 (HIV-1 NDK; HIV 1 NDK, Table 10): 5 µM
